# Measurements published in US20230314435A1, “MARKER OF CALCIUM-OVERLOAD-MEDIATED NEURONAL DEATH AND APPLICATION THEREOF” (Capital Medical University, priority 2022, published 2023).
# Assays:
# [1] = tested on: cell calcium-overload model; assay: Drug screening in a cell calcium-overload model (LDH assay); assay type: cell-based; conditions: screening of micro-molecule library, PMZ as positive control
# From the text: The culture solution was removed, and the cells were washed with PBS. A fresh culture solution was used (it was recommended to use a low serum culture solution containing 1% serum or a suitable serum-free culture solution), and various culture wells were divided into the following groups: cell-free culture solution wells (background blank control wells), control cell wells not treated with a drug (sample control wells), cell wells used for subsequent lysis, not treated with a drug (maximum sample enzyme activity control wells), and drug-treated cell wells (drug-treated sample wells), and these wells were labeled properly.
# Proper drug treatment was provided according to experiment requirements, for example, about 0-10 μL of a specific drug was added for stimulation; different concentrations and different treatment time could be set, and suitable drug solvent was required to be added to the control wells for continued culture as routine against the control. At 1 hour before a predetermined testing time point, the cell culture plate was taken out of a cell incubator, an LDH release reagent provided by a reagent kit was added to the “maximum sample enzyme activity control wells”, and the addition amount was equal to 10% of the volume of the original culture solution. After the addition of the LDH release reagent, the cells were blown repeatedly for several times for uniform mixing, and then were incubated in the cell incubator.
# After the predetermined time expired, the cell culture plate was centrifuged with a multi-well plate centrifugal machine at 400 g for 5 min. 120 μL of a supernatant was respectively taken from each well and added to corresponding wells of a new 96-well plate for subsequent sample testing. 60 μL of an LDH test working solution was respectively added to each well. […] Then, absorbance was measured at 490 nm. […] Calculation was performed (the background blank control well absorbance was deducted from the measured absorbance of each group). […]
# Hela cells = assay: Western blot of autophagy markers (autophagy flux) in Hela wild-type and TLK2 KO cells; assay type: cell-based; conditions: 6 hours
# Protocol: Hela cells were collected, and were added in an RIPA lysis buffer added with a protease inhibitor and PMSF (50 mM Tris, 150 mM NaCl, 1% Triton X-100, 1% sodium deoxytholate and 0.1% SDS) for lysis on ice for 30 min. Subsequently, ultrasonication was performed on ice under the conditions of 40 w 3 sec on/3 sec off for 1 minute, centrifugation was performed at 12,000 rpm in a centrifugal machine at 4° C. for 15 min, a supernatant was collected, diluted by an SDS sample-loading buffer and stewed at 95° C. for 5 min. […] of a protein sample was loaded, and gel electrophoresis was performed under a constant voltage of 80 V When bromophenol blue reached the bottom, membrane transfer was performed overnight at a constant current of 130 mA to transfer the protein from a gel onto a PVDF membrane. The membrane was blocked with 5% skim milk at room temperature for 1 hour, and was washed with TBST for three times, with 5 min for each time. A primary antibody properly diluted was incubated overnight at 4° C., and washed with TBST for three times, with 5 min for each time. An HRP secondary antibody was diluted in 1:10000, incubated at room temperature for 1 hour, and washed with TBST for three times, with 5 min for each time. Western blot was developed by ECL chemiluminescence.
# In TLK2 KO cells, the LC3-II/LC3-I ratio was increased, and a P62 protein level was reduced (FIG. 14). […] The autophagy is a dynamic process, for which a level may be elevated accurately through a process of testing an autophagy flux. By using a drug to activate or block an autophagy pathway, the autophagy flux smoothness could be evaluated.
# Raparnycin (Rapa) was used for activating the autophagy, and bafilomycin A1 (Baf A1) was used for inhibiting the autophagy. Cells were treated with Raparnycin (Rapa, 40 nM) and bafilomycin A1 (Baf A1, 100 nM) for 6 hours, respectively. […] This indicated smooth autophagy flux in the TLK2 KO cells.
# TLK2 [2] = assay: Purified GST-TLK2 incubated with lysis buffer of ionomycin-treated (calcium-overload) Hela cells: Commassie staining, phos-tag SDS-PAGE, mass spectrometry; assay type: biochemical
# Protocol: TLK2 cDNA was cloned to a PGEX-6P-1 vector containing a GST tag, a recombinant plasmid was expressed into BL21 chemical competent cells for induced expression at 180 rpm at 20° C. for 20 hours under an induction condition of 0.5 mM IPTG. GST-TLK2 was purified according to the standard steps of Beyotime GST tag protein purification kit. Hela cells were treated with 17 μM ionomycin for 3 hours, and when a cell density reached 70%, the cells were collected. Lysis was performed in a lysis buffer (10 mM Tris, 150 mM NaCl, 2 mM EDTA and 0.5% TritonX-100). Centrifugation was performed at 12,000 rmp at 4° C. for 15 min, and a supernatant was collected. 3 μg of a GST-TLK2 purified protein and 200 μg of a cell lysis buffer were mixed, and placed overnight in a vertical shaker at 4° C. Subsequently, Glutathione. Sepharose 4B condensate beads were added, and rotation proceeded at room temperature for 1 hour. The mixture was washed with WB and IP lysis buffers for 6 times, each of which the mixture was centrifugated in a centrifugal machine at 2,000 rmp at 4° C. for 5 min. The product was diluted by an SDS sample-loading buffer and stewed at 95° C. for 5 min, or a TLK2 protein was cleaved overnight by PreScission Protease at 4° C. The final result was obtained by Commassie staining.
# The purified TLK2 protein was incubated with a cell lysis buffer (inducing calcium overload) treated with ionomycin or a normal cell lysis buffer. […] Similar change also appeared after the TLK2 protein was incubated with a TLK2 KO cell lysis buffer treated with the ionomycin.
# TLK2 cDNA was cloned to a PGEX-6P-1 vector containing a GST tag, a recombinant plasmid was expressed into BL21 chemical competent cells for induced expression at 180 rpm at 20° C. for 20 hours under an induction condition of 0.5 mM IPTG. GST-TLK2 was purified according to the standard steps of Beyotime GST tag protein purification kit. […]
# Phos-tag was a functional molecule which could be in specific binding with phosphate ions. […] The content of the phosphorylated protein could be analyzed by the change in the migration rate. […]
# TLK2 [3] = assay: In-vitro kinase experiment (ATP consumption, MBP substrate); assay type: biochemical; conditions: TLK2+Ionomycin group compared with normal treatment group
# Protocol: 1 μL of ATP (0.2 mM), 1 μg of a TLK2 purified protein and 20 μg of a substrate were added to a 50 μL reaction system, the remaining volume was supplemented with a kinase buffer (10 mM Tris pH 7.5, 50 mM KCL, 10 mM MgCl2 and 1 mM DTT), and a reaction was performed at room temperature for 15 min. An MBP protein was taken as a positive control substrate, and a PGK1 protein was taken as a negative control substrate. 50 ul of a Kinase-Lumi™ superstrong chemiluminescence kinase assay reagent was added and uniformly mixed to have a reaction in the dark at room temperature for 10 min. Then, a multifunctional microplate reader was used for chemiluminescence testing.
# TLK2 kinase activity was verified by an in-vitro kinase experiment. In the in-vitro kinase experiment, a myelin basic protein (MBP) could be used as a substrate for multiple kinases, a group to which a TLK2 (No TLK2) protein was not added was taken as a control, and in a normal treatment (TLK2+Control) and an ionomycin treatment group (TLK2+Ionomycin), the same amount of the TLK2 protein reacted with the same amount of the MBP protein. A reduced ATP level reflected the TLK2 kinase activity.
# [4] = wild-type Hela cells, Rapa 40 nM or Baf A1 100 nM
# [5] = lysis buffer of Hela cells treated with 17 μM ionomycin for 3 hours
Structure (SMILES),calcium-overload injury inhibition activity [1],LC3-II/LC3-I ratio (Hela cells; [4]),P62 protein level (Hela cells; [4]),also measured
O=c1[nH]c(C2CCCN2)nc2c1oc1ccc(Cl)cc12 (stereo not shown) [XL413],had calcium-overload injury inhibition activity,,,
"CO[C@H]1C[C@@H]2CC[C@@H](C)[C@@](O)(O2)C(=O)C(=O)N2CCCC[C@H]2C(=O)O[C@H]([C@H](C)C[C@@H]2CC[C@@H](O)[C@H](OC)C2)CC(=O)[C@H](C)/C=C(\C)[C@@H](O)[C@@H](OC)C(=O)[C@H](C)C[C@H](C)/C=C/C=C/C=C/1C [Rapa, Raparnycin]",,increased,reduced,"P62 protein level (Hela cells; TLK2 KO Hela cells, Rapa 40 nM): further reduce"
"C[C@H](CCC(=O)O)C[C@H](C)C[C@H](C)C(=O)/C=C(\O)[C@H](C)C[C@H](C)C/C=C/[C@@H](C)[C@@H](O)[C@@H](C)[C@@H](O)C[C@@H]1CC[C@@](C)([C@H]2CC[C@@](C)([C@@H](C)O)O2)O1 [ionomycin, Ionomycin]",,,,"GST-TLK2 protein band (Commassie staining) (TLK2 [2]; [5]): moved upward; additional TLK2 phosphorylation sites compared with the control group (mass spectrometry) (TLK2 [2]; [5]): 15; TLK2 phosphorylation (phos-tag SDS-PAGE) (TLK2 [2]; normal and TLK2 KO cell lysis buffer after 17 μM ionomycin, 3 hours): could promote TLK2 phosphorylation; TLK2 kinase activity (ATP consumption) (TLK2 [3]): could consume much ATP"
CC[C@@H]1C(=O)N(C)c2cnc(Nc3ccc(C(=O)N[C@H]4CC[C@H](N5CCN(CC6CC6)CC5)CC4)cc3OC)nc2N1C(C)C [Volasertib],had calcium-overload injury inhibition activity,,,
O=C(O[C@@H]1Cc2c(O)cc(O)cc2O[C@@H]1c1cc(O)c(O)c(O)c1)c1cc(O)c(O)c(O)c1 [Epigallocatechin Gallate],had calcium-overload injury inhibition activity,,,
"CO/C1=C\C(C)=C\[C@@H](C)[C@@H](O)[C@@H](C)C/C(C)=C/C=C/[C@H](OC)[C@@H]([C@@H](C)[C@@H](O)[C@H](C)[C@@]2(O)C[C@@H](O)[C@H](C)[C@@H](C(C)C)O2)OC1=O [Baf A1, bafilomycin A1]",,elevated,elevated,"autophagy activated by TLK2 KO (Hela cells; TLK2 KO Hela cells, Baf A1 100 nM): blocked"
